Experimental data from PubChem BioAssay (NCI).
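Five compound concentrations were applied to cells in 96-well plates for 48 hours; endpoints were derived by simple linear interpolation of the resulting dose-response curve. Here, GI50 denotes the concentration required for 50% inhibition of growth. TGI: total growth inhibition.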

Tests used:
Experiment in all cases: NCI-60 cell line screen, 48 h
[1] = tested on: CAKI-1 renal
[2] = tested on: IGROV1 ovarian
[3] = tested on: NCI-H460 lung
[4] = tested on: OVCAR-3 ovarian
[5] = tested on: RXF 393 renal
[6] = tested on: SF-268 CNS
[7] = tested on: SF-295 CNS
[8] = tested on: SNB-75 CNS
[9] = tested on: TK-10 renal
[10] = tested on: UACC-62 melanoma
[11] = tested on: MOLT-4 leukemia
[12] = tested on: SW-620 colon

Row | SMILES | GI50 [1] | GI50 [2] | TGI [3] | TGI [4] | GI50 [5] | GI50 [6] | TGI [6] | GI50 [7] | TGI [7] | GI50 [8] | GI50 [9] | TGI [9] | GI50 [10] | TGI [2] | TGI [11] | TGI [5] | TGI [8] | TGI [12] | TGI [10] | TGI [1]
1 | CCCCCC(=O)N[C@@H](c1ccco1)[C@@H](O)C(=O)O[C@H]1C[C@@]2(O)[C@@H](OC(=O)c3ccccc3)[C@@H]3[C@]4(OC(C)=O)CO[C@@H]4C[C@H](O)[C@@]3(C)C(=O)[C@H](OC(C)=O)C(=C1C)C2(C)C | 0.329 µM | 0.00129 µM | > 25 µM | 0.000716 µM | 0.000206 µM | 0.0161 µM | > 25 µM | 0.0009 µM | 0.0284 µM | 0.00226 µM | 0.0275 µM | 18.2 µM | 0.00401 µM | – | – | – | – | – | – | –
2 | O=C1C(Cl)N(c2c(Cl)cccc2Cl)C1c1c[nH]c2ccccc12 (configuration not stated) | – | – | > 100 µM | > 100 µM | – | – | > 100 µM | – | > 100 µM | – | – | > 100 µM | – | > 100 µM | > 100 µM | > 100 µM | > 100 µM | > 100 µM | > 100 µM | –
3 | O=[N+]([O-])C(=C/c1ccccc1)/C(=C\c1ccccc1)[N+](=O)[O-] | – | – | 33 µM | 45.3 µM | – | – | 50 µM | – | 36.2 µM | – | – | 29.6 µM | – | 33.4 µM | 19.5 µM | 33.5 µM | 37 µM | 28.6 µM | 30.7 µM | 29 µM
4 | CCOC(=O)Cc1cc(OC)c(OC)cc1/C(Cl)=C(\CO)c1ccc(OC)c(OC)c1 | – | – | > 100 µM | > 100 µM | – | – | – | – | > 100 µM | – | – | > 100 µM | – | > 100 µM | > 100 µM | > 100 µM | 54 µM | > 100 µM | > 100 µM | > 100 µM
